We go through 19 compounds from patent publication US20230295131A1, “INHIBITORS OF RHO-ASSOCIATED COILED-COIL KINASE” (Angion Biomedica Corp., priority 2020, published 2023).

Molecules are shown by their SMILES.

Experiment [1] concerns the target T1, ROCK1 (Homo sapiens, UniProt Q13464).
T1 construct: T7 phage fusion (kinase-tagged phage) or DNA tag for qPCR detection
Kind of experiment: ROCK1 kinase binding affinity, DiscoverX KINOMEscan KdELECT. The note with it: 11-point 3-fold dilution. The protocol: (§1) 1. ROCK1 and ROCK2 kinase assays: The ROCK1 and ROCK2 kinase binding affinities of compounds in this disclosure were determined by DiscoverX's KINOMEscan™ KdELECT technology (https://www.discoverx.com/kinomescan-elect-kinase-screening-and-profiling-services): Kinase-tagged T7 phage strains were prepared in an E. coli host derived from the BL21 strain. E. coli were grown to log-phase and infected with T7 phage and incubated with shaking at 32° C. until lysis. The lysates were centrifuged and filtered to remove cell debris. The remaining kinases were produced in HEK-293 cells and subsequently tagged with DNA for qPCR detection. […] The liganded beads were blocked with excess biotin and washed with blocking buffer (SeaBlock (Pierce), 1% BSA, 0.05% Tween 20, 1 mM DTT) to remove unbound ligand and to reduce nonspecific binding. […] Kds were determined using an 11-point 3-fold compound dilution series with three DMSO control points. […] The compounds were then diluted directly into the assays such that the final concentration of DMSO was 0.9%. All reactions performed in polypropylene 384-well plate. Each was a final volume of 0.02 ml. […] The kinase concentration in the eluates was measured by qPCR.

The target in experiment [2] is T2, ROCK2 (Homo sapiens, UniProt O75116).
T2 construct: T7 phage fusion (kinase-tagged phage) or DNA tag for qPCR detection
T2 sequence (O75116 whole entry, the tested form may be a part): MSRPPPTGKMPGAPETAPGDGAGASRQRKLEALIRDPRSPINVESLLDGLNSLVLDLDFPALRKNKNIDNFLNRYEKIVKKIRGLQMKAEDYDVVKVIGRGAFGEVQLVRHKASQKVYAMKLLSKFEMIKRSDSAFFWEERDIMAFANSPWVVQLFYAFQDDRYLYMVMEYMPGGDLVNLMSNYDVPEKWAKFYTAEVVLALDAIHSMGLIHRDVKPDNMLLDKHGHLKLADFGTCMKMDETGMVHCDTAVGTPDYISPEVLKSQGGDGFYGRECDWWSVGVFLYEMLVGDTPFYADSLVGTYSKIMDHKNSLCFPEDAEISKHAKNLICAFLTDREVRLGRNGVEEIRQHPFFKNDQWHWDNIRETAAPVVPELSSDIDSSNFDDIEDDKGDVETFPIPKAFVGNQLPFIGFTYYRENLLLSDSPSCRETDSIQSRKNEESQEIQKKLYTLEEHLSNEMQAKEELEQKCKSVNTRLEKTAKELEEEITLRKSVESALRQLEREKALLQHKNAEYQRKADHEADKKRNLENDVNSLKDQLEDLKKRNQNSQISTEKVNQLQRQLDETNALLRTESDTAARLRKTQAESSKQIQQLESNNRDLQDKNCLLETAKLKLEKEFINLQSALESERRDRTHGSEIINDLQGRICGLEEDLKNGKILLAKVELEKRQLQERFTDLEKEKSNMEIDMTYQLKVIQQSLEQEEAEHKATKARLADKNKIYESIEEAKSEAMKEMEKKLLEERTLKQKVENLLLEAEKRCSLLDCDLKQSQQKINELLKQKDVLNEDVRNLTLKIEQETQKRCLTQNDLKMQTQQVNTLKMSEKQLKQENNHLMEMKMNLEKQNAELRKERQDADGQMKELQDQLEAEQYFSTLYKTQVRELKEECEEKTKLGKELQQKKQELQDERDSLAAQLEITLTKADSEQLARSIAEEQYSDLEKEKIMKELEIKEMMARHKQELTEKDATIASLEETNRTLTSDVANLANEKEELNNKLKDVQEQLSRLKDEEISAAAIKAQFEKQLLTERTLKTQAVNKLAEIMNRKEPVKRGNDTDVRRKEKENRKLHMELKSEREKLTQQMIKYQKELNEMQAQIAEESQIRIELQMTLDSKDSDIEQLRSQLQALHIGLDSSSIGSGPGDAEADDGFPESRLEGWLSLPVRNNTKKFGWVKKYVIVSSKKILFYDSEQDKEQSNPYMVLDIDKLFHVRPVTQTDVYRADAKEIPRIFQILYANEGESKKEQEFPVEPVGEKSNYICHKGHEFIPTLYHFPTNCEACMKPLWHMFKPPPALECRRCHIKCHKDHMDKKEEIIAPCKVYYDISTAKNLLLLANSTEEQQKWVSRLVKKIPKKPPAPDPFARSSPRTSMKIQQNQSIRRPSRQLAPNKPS
The experiment is described as follows: ROCK2 kinase binding affinity, DiscoverX KINOMEscan KdELECT. As to conditions: for Kd: KINOMEscan KdELECT, 11-point 3-fold dilution, read-out: Kd (μM) ROCK2; for ROCK2 Selectivity: selectivity for ROCK2 over ROCK1 from Kd. As for the experimental part:
as §1

T1 sequence (Q13464 whole entry, the tested form may be a part): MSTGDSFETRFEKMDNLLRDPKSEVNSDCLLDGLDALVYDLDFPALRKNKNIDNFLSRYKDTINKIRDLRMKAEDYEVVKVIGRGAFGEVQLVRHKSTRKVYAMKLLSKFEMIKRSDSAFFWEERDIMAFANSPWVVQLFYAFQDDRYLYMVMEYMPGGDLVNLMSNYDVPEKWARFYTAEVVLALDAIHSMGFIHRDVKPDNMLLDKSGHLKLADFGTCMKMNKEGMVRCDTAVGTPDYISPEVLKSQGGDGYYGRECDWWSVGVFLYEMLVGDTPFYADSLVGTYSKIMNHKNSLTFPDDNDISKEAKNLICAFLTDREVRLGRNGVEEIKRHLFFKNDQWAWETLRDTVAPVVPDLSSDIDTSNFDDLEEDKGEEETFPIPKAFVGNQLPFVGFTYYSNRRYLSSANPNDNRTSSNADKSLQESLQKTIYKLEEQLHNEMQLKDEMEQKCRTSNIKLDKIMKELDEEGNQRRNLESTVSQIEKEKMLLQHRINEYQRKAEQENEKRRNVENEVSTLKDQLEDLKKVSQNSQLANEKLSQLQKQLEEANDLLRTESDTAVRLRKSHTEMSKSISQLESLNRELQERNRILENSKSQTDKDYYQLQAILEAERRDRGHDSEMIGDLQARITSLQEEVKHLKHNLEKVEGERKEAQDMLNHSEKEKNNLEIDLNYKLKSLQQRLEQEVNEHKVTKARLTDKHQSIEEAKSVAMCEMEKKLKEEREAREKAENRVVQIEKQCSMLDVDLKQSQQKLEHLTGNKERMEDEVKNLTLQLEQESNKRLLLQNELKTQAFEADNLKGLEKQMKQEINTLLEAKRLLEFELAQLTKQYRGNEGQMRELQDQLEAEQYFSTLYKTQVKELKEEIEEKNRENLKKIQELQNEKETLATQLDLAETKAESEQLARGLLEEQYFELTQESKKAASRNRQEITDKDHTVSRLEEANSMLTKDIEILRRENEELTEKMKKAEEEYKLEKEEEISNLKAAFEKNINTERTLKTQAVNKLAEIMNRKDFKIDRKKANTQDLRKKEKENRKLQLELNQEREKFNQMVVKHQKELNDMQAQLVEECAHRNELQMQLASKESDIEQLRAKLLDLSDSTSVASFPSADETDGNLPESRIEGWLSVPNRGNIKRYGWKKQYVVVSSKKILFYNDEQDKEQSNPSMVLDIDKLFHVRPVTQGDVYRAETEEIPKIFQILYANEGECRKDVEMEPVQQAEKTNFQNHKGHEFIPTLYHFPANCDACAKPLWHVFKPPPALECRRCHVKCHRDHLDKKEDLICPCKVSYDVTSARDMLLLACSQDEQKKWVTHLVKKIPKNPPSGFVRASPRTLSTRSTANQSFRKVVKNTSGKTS

As for `CS(=O)(=O)CCNc1nccc(-c2nccc(C#Cc3ccc4[nH]ncc4c3)n2)n1` [Ex. 56, 4-((1H-Indazol-5-yl)ethynyl)-N-(2-(methylsulfonyl)ethyl)-[2,4′-bipyrimidin]-2′-amine], in experiment [1], the Kd was in the range of 1 to 9.9 µM. In experiment [2], the Kd is < 0.01 µM and the “ROCK2 Selectivity” value is reported as “**** (>500-fold selectivity for ROCK2)”.

In the case of `Fc1cccc(CNc2nccc(-c3nccc(C#Cc4ccc5[nH]ncc5c4)n3)n2)c1F` [Ex. 26, 4-((1H-Indazol-5-yl)ethynyl)-N-(2,3-difluorobenzyl)-[2,4′-bipyrimidin]-2′-amine], the Kd in experiment [1] is 1 to 9.9 µM. In addition, in experiment [2], the Kd was 0.01 to 0.099 µM and the “ROCK2 Selectivity” value is recorded as “** (50 to 150-fold selectivity for ROCK2)”.

Regarding `CN(C)C(=O)CNc1nccc(-c2nccc(C#Cc3ccc4[nH]nc(F)c4c3)n2)n1` [Ex. 46, 2-((4-((3-Fluoro-1H-indazol-5-yl)ethynyl)-[2,4′-bipyrimidin]-2′-yl)amino)-N,N-dimethylacetamide], the Kd in experiment [1] is 1 to 9.9 µM. Moreover, in experiment [2], the Kd fell in the range of 0.01 to 0.099 µM and the “ROCK2 Selectivity” value is on record as “** (50 to 150-fold selectivity for ROCK2)”.

In the case of `Fc1cncc(CNc2nccc(-c3nccc(C#Cc4ccc5[nH]ncc5c4)n3)n2)c1` [Ex. 29, 4-((1H-Indazol-5-yl)ethynyl)-N-((5-fluoropyridin-3-yl)methyl)-[2,4′-bipyrimidin]-2′-amine], the dissociation constant (Kd) in experiment [1] was 1 to 9.9 µM; in experiment [2] it was 0.1 to 0.99 µM. The “ROCK2 Selectivity” value in experiment [2] was “* (<50-fold selectivity for ROCK2)”.

Take `Fc1cc(CNc2nccc(-c3nccc(C#Cc4ccc5[nH]ncc5c4)n3)n2)ccn1` [Ex. 33, 4-((1H-Indazol-5-yl)ethynyl)-N-((2-fluoropyridin-4-yl)methyl)-[2,4′-bipyrimidin]-2′-amine]: the Kd in experiment [1] was 1 to 9.9 µM. Moreover, in experiment [2], the Kd was < 0.01 µM and the “ROCK2 Selectivity” value is recorded as “*** (151 to 500-fold selectivity for ROCK2)”.

Compound `C(#Cc1ccnc(-c2ccnc(NCC3CCCCN3)n2)n1)c1ccc2[nH]ncc2c1` (stereo not drawn) [Ex. 9, 4-((1H-Indazol-5-yl)ethynyl)-N-(piperidin-2-ylmethyl)-[2,4′-bipyrimidin]-2′-amine] registered a Kd in experiment [1] of 1 to 9.9 µM. Also, in experiment [2], the Kd was 0.1 to 0.99 µM and the “ROCK2 Selectivity” value was “* (<50-fold selectivity for ROCK2)”.

In the case of `C(#Cc1ccnc(-c2ccnc(NC[C@@H]3CCCO3)n2)n1)c1ccc2[nH]ncc2c1` [Ex. 35, (S)-4-((1H-Indazol-5-yl)ethynyl)-N-((tetrahydrofuran-2-yl)methyl)-[2,4′-bipyrimidin]-2′-amine], the Kd in experiment [1] lay within 0.1 to 0.99 µM. Besides, in experiment [2], the Kd was < 0.01 µM and the “ROCK2 Selectivity” value is on record as “*** (151 to 500-fold selectivity for ROCK2)”.

As for `C(#Cc1ccnc(-c2ccnc(NCC3CCCCO3)n2)n1)c1ccc2[nH]ncc2c1` (stereo not drawn) [Ex. 76, 4-((1H-Indazol-5-yl)ethynyl)-N-((tetrahydro-2H-pyran-2-yl)methyl)-[2,4′-bipyrimidin]-2′-amine], the Kd was 1 to 9.9 µM in experiment [1] and < 0.01 µM in experiment [2]. Besides, the “ROCK2 Selectivity” value in experiment [2] is on record as “*** (151 to 500-fold selectivity for ROCK2)”.

In experiment [1], `O=C(CNc1nccc(-c2nccc(C#Cc3ccc4[nH]nc(F)c4c3)n2)n1)N1CCOCC1` [Ex. 77, 2-((4-((3-Fluoro-1H-indazol-5-yl)ethynyl)-[2,4′-bipyrimidin]-2′-yl)amino)-1-morpholinoethanone] yielded a Kd of 10 to 100 µM. Moreover, in experiment [2], the Kd was 0.01 to 0.099 µM and the “ROCK2 Selectivity” value is “*** (151 to 500-fold selectivity for ROCK2)”.

For `C(#Cc1ccnc(-c2ccnc(NC[C@H]3CCOC3)n2)n1)c1ccc2[nH]ncc2c1` [Ex. 69, (R)-4-((1H-Indazol-5-yl)ethynyl)-N-((tetrahydrofuran-3-yl)methyl)-[2,4′-bipyrimidin]-2′-amine], in experiment [1], the Kd lay in the range of 1 to 9.9 µM. Also, in experiment [2], the Kd is < 0.01 µM and the “ROCK2 Selectivity” value is “*** (151 to 500-fold selectivity for ROCK2)”.

The compound `Fc1cccc(CNc2nccc(-c3nccc(C#Cc4ccc5[nH]ncc5c4)n3)n2)n1` [Ex. 32, 4-((1H-Indazol-5-yl)ethynyl)-N-((6-fluoropyridin-2-yl)methyl)-[2,4′-bipyrimidin]-2′-amine] had a Kd in experiment [1] of 1 to 9.9 µM. In experiment [2], the Kd lay in the range of 0.01 to 0.099 µM and the “ROCK2 Selectivity” value was “** (50 to 150-fold selectivity for ROCK2)”.

In turn, `CN(Cc1ccc(F)cn1)c1nccc(-c2nccc(C#Cc3ccc4[nH]ncc4c3)n2)n1` [Ex. 30, 4-((1H-Indazol-5-yl)ethynyl)-N-((5-fluoropyridin-2-yl)methyl)-N-methyl-[2,4′-bipyrimidin]-2′-amine] registered a Kd in experiment [1] of 1 to 9.9 µM. In experiment [2], the Kd is 0.1 to 0.99 µM and the “ROCK2 Selectivity” value is on record as “* (<50-fold selectivity for ROCK2)”.

`Cc1ccnc(F)c1CNc1nccc(-c2nccc(C#Cc3ccc4[nH]ncc4c3)n2)n1` [Ex. 70, 4-((1H-Indazol-5-yl)ethynyl)-N-((2-fluoro-4-methylpyridin-3-yl)methyl)-[2,4′-bipyrimidin]-2′-amine] gave a Kd in experiment [1] of 10 to 100 µM. In experiment [2], the Kd was 0.01 to 0.099 µM and the “ROCK2 Selectivity” value is on record as “**** (>500-fold selectivity for ROCK2)”.

For `O=S1(=O)CCC(CNc2nccc(-c3nccc(C#Cc4ccc5[nH]ncc5c4)n3)n2)CC1` [Ex. 85, 4-(((4-((1H-Indazol-5-yl)ethynyl)-[2,4′-bipyrimidin]-2′-yl)amino)methyl)tetrahydro-2H-thiopyran 1,1-dioxide], the Kd in experiment [1] is 1 to 9.9 µM; in experiment [2] it was < 0.01 µM. In addition, in experiment [2], the “ROCK2 Selectivity” value is “*** (151 to 500-fold selectivity for ROCK2)”.

On to `C(#Cc1ccnc(-c2ccnc(NC[C@H]3CCCO3)n2)n1)c1ccc2[nH]ncc2c1` [Ex. 34, (R)-4-((1H-Indazol-5-yl)ethynyl)-N-((tetrahydrofuran-2-yl)methyl)-[2,4′-bipyrimidin]-2′-amine], for which the dissociation constant (Kd) in experiment [1] was in the range of 0.1 to 0.99 µM. Also, in experiment [2], the Kd was < 0.01 µM and the “ROCK2 Selectivity” value is on record as “*** (151 to 500-fold selectivity for ROCK2)”.

Take `Fc1cc(CNc2nccc(-c3nccc(C#Cc4ccc5[nH]nc(F)c5c4)n3)n2)ccn1` [Ex. 61, 4-((3-Fluoro-1H-indazol-5-yl)ethynyl)-N-((2-fluoropyridin-4-yl)methyl)-[2,4′-bipyrimidin]-2′-amine]: the Kd in experiment [1] was in the range of 10 to 100 µM. Further, in experiment [2], the Kd was 0.01 to 0.099 µM and the “ROCK2 Selectivity” value is given as “*** (151 to 500-fold selectivity for ROCK2)”.

In turn, `O[C@@H]1CC[C@H](Nc2nccc(-c3nccc(C#Cc4ccc5[nH]ncc5c4)n3)n2)C1` [Ex. 74, (1R,3S)-3-((4-((1H-indazol-5-yl)ethynyl)-[2,4′-bipyrimidin]-2′-yl)amino)cyclopentanol] displayed a Kd in experiment [1] of 0.1 to 0.99 µM. In experiment [2], the Kd was < 0.01 µM and the “ROCK2 Selectivity” value is “**** (>500-fold selectivity for ROCK2)”.

In experiment [1], `O=S1(=O)CC[C@@H](Nc2nccc(-c3nccc(C#Cc4ccc5[nH]ncc5c4)n3)n2)C1` [Ex. 88, (R)-3-((4-((1H-Indazol-5-yl)ethynyl)-[2,4′-bipyrimidin]-2′-yl)amino)tetrahydrothiophene 1,1-dioxide] had a Kd of 0.1 to 0.99 µM. Also, in experiment [2], the Kd lay in the range of 0.01 to 0.099 µM and the “ROCK2 Selectivity” value is listed as “* (<50-fold selectivity for ROCK2)”.

Regarding `Fc1nccc(Cl)c1CNc1nccc(-c2nccc(C#Cc3ccc4[nH]ncc4c3)n2)n1` [Ex. 64, 4-((1H-Indazol-5-yl)ethynyl)-N-((4-chloro-2-fluoropyridin-3-yl)methyl)-[2,4′-bipyrimidin]-2′-amine], the Kd in experiment [1] was 0.1 to 0.99 µM; in experiment [2], 0.01 to 0.099 µM. Moreover, in experiment [2], the “ROCK2 Selectivity” value was “* (<50-fold selectivity for ROCK2)”.
